Test results published in US7998989B2, “2-Imino-1,3-thiazoline-based compounds and T-type calcium channel inhibitors containing the same” (Korea Institute of Science and Technology, priority 2007, dated 2011).

What was measured:
[1] = biological target: T1, α1G T-type calcium channel (Homo sapiens, UniProt O43497); test: Electrophysiological whole cell patch clamp measurement of T-type calcium channel current in HEK293 cells; type: cell-based; details: HEK293 cells expressing α1G; for HEK293cell (% Inhibition) 10 μM: inhibition of peak current; for IC50: read-out: IC50 (a1G)
T1 construct: host or cells: HEK293
Method: In the present invention, in order to examine an efficient inhibitor against the T-type calcium channel, a primary assay for T-type calcium channel inhibiting activity was conducted by a high-efficient assay using FDSS6000, wherein mammal HEK293 cell lines (originated from human kidney carcinoma cells) that specifically express α1G of the T-type calcium channel was used for primary assay. Through the primary assay, compounds that show meaningful inhibition effects were selected. The selected compounds were used in a second assay for T-type calcium channel inhibiting activity using an electrophysiological whole cell patch clamp method, wherein mammal HEK293 cell lines (originated from human kidney carcinoma cells) that specifically express α1G of the T-type calcium channel was used for the second assay. Mibefradil, which had been developed as a T-type calcium channel inhibitor, was used as a reference.
10% Fetal bovine serum (FBS) and 1% penicillin/streptomycin (v/v) were added to Dulbecco's modified Eagle's medium (DMEM), to be used as a media solution. The cells were cultured in an incubator under a wet condition of 95% air/5% CO2 and a temperature of 36.5° C. The media solution was refreshed every 3 or 4 days, and the cells were sub-cultured every week. Only the cells that expressed α1G T-type calcium channel were cultured using a G-418 (0.5 mg/ml) solution. The recording of the cells used in the T-type calcium channel activity analysis was conducted at 2-7 days after the cells were culturing on a cover slip coated with poly-L-lysine (0.5 mg/ml) when conducting every sub-culture. For analysis at a single cell level, the T-type calcium channel current was measured by an electrophysiological whole cell patch clamp method using EPC-9 amplifier (HEKA, German).
As solutions for analyzing T-type calcium channel activity, a solution including NaCl 140 mM, CaCl2 2 mM, and HEPES10 mM (pH 7.4, Sigma; 4-(2-hydroxyethyl)piperazine-1-ethanesulfonic acid) was used as an extracellular solution, and a solution including KCl 130 mM, HEPES 10 mM (Sigma), EGTA 11 mM (ethylene glycol-bis(2-aminoethylether)-N,N,N′,N′-tetraacetic acid, Sigma), and MgATP 5 mM (pH 7.4, Sigma) was used as an intracellular solution. The protocol for T-type calcium channel activity that is activated at low voltage is as follows. A micro-glass electrode with resistance of 3-4 MΩ wherein the above-prepared intracellular solution was filled was pricked into a single cell, to make a whole-cell recording mode. Thereafter, the cell membrane potential was fixed to −100 mV, and then the inward current due to the T-type calcium channel activity when hypopolarizing to −30 mV (50 ms duration) was measured every 10 seconds.
Each compound to be tested was dissolved in 100% dimethylsulfoxide (DMSO) to make a 10 mM stock solution. The effect of the compound on the T-type calcium channel current compound was initially examined in the stock solution with the 1000-times diluted concentration of 10 μM (containing 0.1% DMSO) and then examined in the solution with the concentration for IC50 measurement (mostly 0.1 to 100 μM), to obtain an IC50 value. More specifically, the cells were treated in each compound together with the extracellular solution for 30 to 60 seconds, and the inhibition level of peak current induced by the compound was calculated as a percentage, to obtain the % inhibition value as shown in Table 4.

[2] = biological target: T1, α1G T-type calcium channel; test: Assay for % inhibiting activity against T-type calcium channel using FDSS6000 (fluo-3 calcium imaging, KCl activation); type: cell-based; details: 10 μM; HEK293 cells stably expressing α1G T-type calcium channel and Kir2.1; compounds of the examples
Method in brief: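 HEK293 cells stably expressing α1G and Kir2.1 loaded with 5 μM fluo-3/AM, then in HEPES buffer (pH 7.4) with 10 mM CaCl2. Compound applied 75 s before 75 mM KCl; intracellular Ca2+ read as […] area, % inhibition relative to untreated control.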

T1 sequence (O43497 whole entry): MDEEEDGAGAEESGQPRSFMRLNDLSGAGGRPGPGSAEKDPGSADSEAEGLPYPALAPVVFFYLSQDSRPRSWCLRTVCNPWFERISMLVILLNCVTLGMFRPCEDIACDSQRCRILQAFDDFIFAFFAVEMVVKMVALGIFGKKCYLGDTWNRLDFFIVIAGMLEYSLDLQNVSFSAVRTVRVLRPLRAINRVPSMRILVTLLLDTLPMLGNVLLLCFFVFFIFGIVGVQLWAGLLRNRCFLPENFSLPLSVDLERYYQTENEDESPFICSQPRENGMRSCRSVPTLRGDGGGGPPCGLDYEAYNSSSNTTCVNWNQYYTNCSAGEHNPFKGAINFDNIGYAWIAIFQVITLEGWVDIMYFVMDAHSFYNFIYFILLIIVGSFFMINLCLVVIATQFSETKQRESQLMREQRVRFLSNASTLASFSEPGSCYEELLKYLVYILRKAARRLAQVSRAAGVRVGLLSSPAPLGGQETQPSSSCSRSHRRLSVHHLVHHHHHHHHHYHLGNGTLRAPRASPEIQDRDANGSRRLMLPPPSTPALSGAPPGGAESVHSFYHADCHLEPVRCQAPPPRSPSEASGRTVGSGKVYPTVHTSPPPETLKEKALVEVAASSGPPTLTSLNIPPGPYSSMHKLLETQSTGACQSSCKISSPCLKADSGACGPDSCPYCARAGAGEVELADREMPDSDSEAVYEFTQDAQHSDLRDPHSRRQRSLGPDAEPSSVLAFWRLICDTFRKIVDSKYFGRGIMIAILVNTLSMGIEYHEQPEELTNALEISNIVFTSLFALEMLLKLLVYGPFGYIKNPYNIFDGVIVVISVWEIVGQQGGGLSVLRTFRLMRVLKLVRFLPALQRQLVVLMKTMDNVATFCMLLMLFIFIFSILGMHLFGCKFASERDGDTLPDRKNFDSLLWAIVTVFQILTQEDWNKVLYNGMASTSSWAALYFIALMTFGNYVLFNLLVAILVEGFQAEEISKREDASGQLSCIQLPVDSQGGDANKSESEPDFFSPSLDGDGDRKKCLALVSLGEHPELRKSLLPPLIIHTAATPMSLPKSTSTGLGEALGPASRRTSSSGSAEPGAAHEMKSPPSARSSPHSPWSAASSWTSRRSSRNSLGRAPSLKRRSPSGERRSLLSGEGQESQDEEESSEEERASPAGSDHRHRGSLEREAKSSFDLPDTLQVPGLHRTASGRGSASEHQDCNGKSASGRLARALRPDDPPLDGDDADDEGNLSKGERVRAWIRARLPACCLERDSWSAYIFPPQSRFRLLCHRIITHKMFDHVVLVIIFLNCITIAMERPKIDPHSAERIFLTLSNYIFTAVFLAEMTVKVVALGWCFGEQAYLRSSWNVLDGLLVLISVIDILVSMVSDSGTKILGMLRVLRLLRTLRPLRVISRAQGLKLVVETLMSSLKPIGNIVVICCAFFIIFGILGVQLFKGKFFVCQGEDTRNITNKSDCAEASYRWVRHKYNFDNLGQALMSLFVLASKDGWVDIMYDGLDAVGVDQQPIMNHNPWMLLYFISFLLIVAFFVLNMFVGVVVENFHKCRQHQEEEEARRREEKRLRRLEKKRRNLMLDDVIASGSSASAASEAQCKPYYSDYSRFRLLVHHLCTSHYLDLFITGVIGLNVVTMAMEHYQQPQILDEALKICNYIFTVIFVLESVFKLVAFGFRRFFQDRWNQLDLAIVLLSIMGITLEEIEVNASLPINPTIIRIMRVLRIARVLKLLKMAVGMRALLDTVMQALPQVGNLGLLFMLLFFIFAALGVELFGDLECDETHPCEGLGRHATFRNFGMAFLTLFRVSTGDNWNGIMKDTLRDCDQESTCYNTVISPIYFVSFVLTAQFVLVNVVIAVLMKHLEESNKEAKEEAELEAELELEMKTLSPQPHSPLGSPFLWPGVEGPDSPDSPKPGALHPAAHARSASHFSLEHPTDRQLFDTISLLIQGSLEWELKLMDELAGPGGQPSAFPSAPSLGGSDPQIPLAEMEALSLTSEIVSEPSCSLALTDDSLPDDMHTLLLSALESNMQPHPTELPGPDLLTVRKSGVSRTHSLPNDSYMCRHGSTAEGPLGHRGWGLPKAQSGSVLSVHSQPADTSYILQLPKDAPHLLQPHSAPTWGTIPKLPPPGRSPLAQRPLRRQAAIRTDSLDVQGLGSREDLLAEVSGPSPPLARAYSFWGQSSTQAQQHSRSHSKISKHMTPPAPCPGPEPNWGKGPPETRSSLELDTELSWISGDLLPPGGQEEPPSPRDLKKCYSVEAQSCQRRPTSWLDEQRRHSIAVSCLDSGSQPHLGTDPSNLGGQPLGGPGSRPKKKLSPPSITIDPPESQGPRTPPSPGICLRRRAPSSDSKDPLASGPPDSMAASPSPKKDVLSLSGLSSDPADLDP

Row | Compound | HEK293cell (% Inhibition) 10 μM [1] [%] | IC50 [1] [nM] | FDSS (% inhibition)/10uM [2] [%]
1 | (2-cycloheptylimino-3-methyl-1,3-thiazolidine-4-yl)-N-(2-fluoro-4-methylphenyl)-acetamide hydrochloride [KHG24126] | 87.7 ± 0.6 | 1200 ± 80 | 53.79
2 | (2-cyclohexylimino-3-methyl-1,3-thiazolidine-4-yl)-N-(3-trifluoromethylphenyl)-acetamide hydrochloride [KHG24084] | 82.2 ± 1.4 | 2790 ± 110 | 58.61
3 | (2-cycloheptylimino-3-methyl-1,3-thiazolidine-4-yl)-N-(4-chloro-2-fluorophenyl)-acetamide hydrochloride [KHG24130] | 90.0 ± 0.9 | 810 ± 80 | 70.4
4 | (2-cycloheptylimino-3-methyl-1,3-thiazolidine-4-yl)-N-(4-methyl-2-chlorophenyl)-acetamide hydrochloride [KHG24124] | 87.1 ± 1.2 | 1770 ± 100 | 59.49
5 | (2-cycloheptylimino-3-methyl-1,3-thiazolidine-4-yl)-N-(4-phenoxyphenyl)-acetamide hydrochloride [KHG24123] | 94.2 ± 2.0 | 1090 ± 200 | 76.6
6 | (2-cycloheptylimino-3-methyl-1,3-thiazolidine-4-yl)-N-(4-n-butylphenyl)-acetamide hydrochloride [KHG24134] | 95.1 ± 2.0 | 340 ± 30 | 75.92
7 | (2-cyclohexylimino-3-methyl-1,3-thiazolidine-4-yl)-N-(2-fluoro-5-nitrophenyl)-acetamide hydrochloride [KHG23360] | 87.8 ± 2.2 | 780 ± 80 | 66.64
8 | (2-cycloheptylimino-3-methyl-1,3-thiazolidine-4-yl)-N-(4-chlorophenyl)-acetamide hydrochloride [KHG24131] | 86.8 ± 0.3 | 520 ± 20 | 72.86
9 | CN1C(=NC2CCCCCC2)SCC1CC(=O)Nc1cc(Cl)cc(Cl)c1.Cl (stereo not drawn) [KHG24125, (2-cycloheptylimino-3-methyl-1,3-thiazolidine-4-yl)-N-(3,5- ? chlorophenyl)-acetamide hydrochloride] | 95.6 ± 1.2 | 80 ± 10 | 71.79
10 | (2-cyclohexylimino-3-methyl-1,3-thiazolidine-4-yl)-N-(4-fluorophenyl)-acetamide hydrochloride [KHG23210] | 59.6 ± 1.5 | 6500 ± 500 | 46.69
11 | (2-cyclohexylimino-3-methyl-1,3-thiazolidine-4-yl)-N-(3,5-dichlorophenyl)-acetamide hydrochloride [KHG23356] | 97.0 ± 0.7 | 230 ± 10 | 60.46
12 | (2-cycloheptylimino-3-methyl-1,3-thiazolidine-4-yl)-N-(4-bromophenyl)-acetamide hydrochloride [KHG24122] | 94.6 ± 0.5 | 390 ± 30 | 71.12
13 | [2-(1-adamantyl)imino-3-methyl-1,3-thiazolidine-4-yl]-N-(4-phenoxyphenyl)-acetamide hydrochloride [KHG24244] | 90.6 ± 3.6 | 920 ± 80 | 53.67
14 | [2-(1-adamantyl)imino-3-methyl-1,3-thiazolidine-4-yl]-N-(4-trifluoromethylphenyl)-acetamide hydrochloride [KHG24240] | 96.2 ± 1.1 | 230 ± 20 | 70.68
15 | [2-(1-adamantylimino)-3-n-propyl-1,3-thiazolidine-4-yl]-N-(4-chloro-2-fluorophenyl)-acetamide hydrochloride [KHG24816] | 95.6 ± 0.8 | 510 ± 10 | 80.83
16 | (2-cyclohexylimino-3-methyl-1,3-thiazolidine-4-yl)-N-(4-chlorophenyl)-acetamide hydrochloride [KHG23362] | 89.3 ± 0.9 | 530 ± 30 | 66.17
17 | (2-cycloheptylimino-3-methyl-1,3-thiazolidine-4-yl)-N-(4-cyanomethylphenyl)-acetamide hydrochloride [KHG24121] | 58.1 ± 4.9 | 8530 ± 1720 | 41.02
18 | (2-cyclohexylimino-3-methyl-1,3-thiazolidine-4-yl)-N-(2-trifluoromethylphenyl)-acetamide hydrochloride [KHG24083] | 76.5 ± 2.3 | 3630 ± 540 | 47.92
19 | [2-(1-adamantyl)imino-3-methyl-1,3-thiazolidine-4-yl]-N-(5-chloro-2-fluorophenyl)-acetamide hydrochloride [KHG24242] | 85.2 ± 1.3 | 970 ± 140 | 53.38
20 | (2-cycloheptylimino-3-methyl-1,3-thiazolidine-4-yl)-N-(5-chloro-2-fluorophenyl)-acetamide hydrochloride [KHG24128] | 88.1 ± 1.9 | 550 ± 10 | 62.56
21 | [2-(1-adamantyl)imino-3-methyl-1,3-thiazolidine-4-yl]-N-(4-isopropylphenyl)-acetamide hydrochloride [KHG24243] | 97.0 ± 1.1 | 50 ± 10 | 60.9
22 | [2-(1-adamantyl)imino-3-methyl-1,3-thiazolidine-4-yl]-N-(4-bromophenyl)-acetamide hydrochloride [KHG24239] | 96.5 ± 1.3 | 610 ± 70 | 69.55
23 | (2-cycloheptylimino-3-methyl-1,3-thiazolidine-4-yl)-N-phenyl-acetamide hydrochloride [KHG24132] | 76.8 ± 1.0 | 5000 ± 1970 | 50.94
24 | [2-(1-adamantylimino)-3-cyclopropyl-1,3-thiazolidine-4-yl]-N-(4-phenoxyphenyl)-acetamide hydrochloride [KHG24800] | 95.4 ± 0.5 | 430 ± 70 | 83.5
25 | (2-cycloheptylimino-3-methyl-1,3-thiazolidine-4-yl)-N-(4-chlorobenzyl)-acetamide hydrochloride [KHG24160] | 92.9 ± 0.7 | 1330 ± 30 | 61.93
26 | [2-(1-adamantylimino)-3-ethyl-1,3-thiazolidine-4-yl]-N-(4-trifluoromethylphenyl)-acetamide hydrochloride [KHG24821] | 92.3 ± 1.8 | 360 ± 20 | 73.69
27 | (2-cyclohexylimino-3-methyl-1,3-thiazolidine-4-yl)-N-(3-chloro-4-methylphenyl)-acetamide hydrochloride [KHG24072] | 91.2 ± 1.6 | 990 ± 30 | 63.5
28 | [2-(1-adamantyl)imino-3-methyl-1,3-thiazolidine-4-yl]-N-(4-fluorophenyl)-acetamide hydrochloride [KHG24237] | 91.2 ± 3.1 | 770 ± 30 | 74.81
